In PMC12439166, “Dietary flavonoids form supramolecular assemblies, alter biochemistry, and enhance cell resilience” (Frontiers in Nutrition, 2025):

Tests used:
Arginase 1 (ARG1) = target: T1, Arginase 1 (ARG1) (Homo sapiens, UniProt P05089); assay: Enzyme activity assay (SAMDI-MS), Arginase 1; format: biochemical; conditions: 10 concentrations, 5 nM to 100 μM, compounds incubated with enzyme 30 min, result in words
T1 sequence (P05089 1-322): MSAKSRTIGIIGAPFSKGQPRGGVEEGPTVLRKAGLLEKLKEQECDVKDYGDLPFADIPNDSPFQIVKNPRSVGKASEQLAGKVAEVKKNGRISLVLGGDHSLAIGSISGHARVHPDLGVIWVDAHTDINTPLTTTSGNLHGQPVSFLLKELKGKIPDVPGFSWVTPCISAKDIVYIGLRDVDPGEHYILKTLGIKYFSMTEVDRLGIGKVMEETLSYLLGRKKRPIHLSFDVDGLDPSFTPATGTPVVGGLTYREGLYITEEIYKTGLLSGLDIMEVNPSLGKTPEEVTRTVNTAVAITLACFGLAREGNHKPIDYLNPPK
Method: (§1) Enzyme screens were performed by SAMDI Tech (contract research organization); enzyme assays were performed in a 20 μL volume in 384-well low-volume polypropylene microtiter plates (Greiner Bio-One) at room temperature. The enzymes [Arginase 1 (ARG1), Lysine demethylase 4C (KDM4C), MAP/microtubule affinity-regulating kinase 4 (MARK4), Histone-Lysine N-methyltransferase (NSD2), Tyrosine-protein phosphatase non-receptor type 1 (PTP1B), and Sirtuin-3 (SIRT3)] were incubated with compounds for 30 min prior to initiation of the reaction by the addition of substrate and cofactors (if required). […] SAMDI MS was performed using reflector positive mode on an AB Sciex TOF-TOF 5800 System (AB Sciex, Framingham, MA) with 400 shots/spot analyzed in a random raster sampling. For data analysis, the area under the curves (AUCs) for the product peak and substrate peak were calculated using the TOF/TOF Series Explorer (AB Sciex), and the amount of product formed was calculated using the equation AUC product / (AUC product + AUC Substrate). […]
(§2) IC50 values of enzyme inhibition. Inhibition of the enzymes was measured at 10 concentration values in the range of 5 nM to 100 μM for each compound and enzyme, with two technical replicates; the percent inhibition values were determined by SAMDI software. […]

Sirtuin-3 (SIRT3) = target: T2, Sirtuin-3 (SIRT3) (Homo sapiens, UniProt Q9NTG7); assay: Enzyme activity assay (SAMDI-MS), SIRT3; format: biochemical; conditions: 10 concentrations, 5 nM to 100 μM, compounds incubated with enzyme 30 min, result in words
T2 sequence (Q9NTG7 1-399): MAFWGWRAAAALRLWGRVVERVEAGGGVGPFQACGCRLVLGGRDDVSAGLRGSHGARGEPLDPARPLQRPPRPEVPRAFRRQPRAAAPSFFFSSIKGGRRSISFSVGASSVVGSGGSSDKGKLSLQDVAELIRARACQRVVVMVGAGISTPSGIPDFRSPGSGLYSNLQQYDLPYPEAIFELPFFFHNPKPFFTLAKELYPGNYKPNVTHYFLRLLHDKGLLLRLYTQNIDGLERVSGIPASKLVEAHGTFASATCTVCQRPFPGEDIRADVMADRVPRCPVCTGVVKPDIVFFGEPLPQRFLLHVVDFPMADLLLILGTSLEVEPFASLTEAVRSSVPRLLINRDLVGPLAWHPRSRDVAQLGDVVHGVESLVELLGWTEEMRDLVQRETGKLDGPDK
Method: as §1, §2

O=c1c(O)c(-c2ccc(O)c(O)c2)oc2cc(O)cc(O)c12 [quercetin]
inhibition of enzyme activity, ARG1 (Arginase 1 (ARG1); listed as Quercetin): inhibited
inhibition of enzyme activity, ARG1 (Arginase 1 (ARG1); listed as Quercitin): concentration-dependent inhibition
inhibition of enzyme activity, SIRT3 (Sirtuin-3 (SIRT3); listed as Quercetin): inhibited
inhibition of enzyme activity, SIRT3 (Sirtuin-3 (SIRT3); listed as Quercitin): concentration-dependent inhibition
